Key:
[1] = test system: Kuramochi cells; assay: BrdU Cell Proliferation Assay; type: cell-based; settings: read-out: BrdU - KURAMOCHI.1: IC50
In short: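 Kuramochi cells were seeded at 2,000 cells/well, adhered overnight, then treated with a 10-point, 3-fold compound dilution series for 4 days. Proliferation was measured by a 1-hour BrdU pulse, anti-BrdU peroxidase colorimetric ELISA and 450 nm absorbance. Values were background-subtracted and normalized to DMSO wells.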

[2] = test system: Kuramochi cells labeled with mApple-H2B; assay: IncuCyte Cell Proliferation Assay; type: cell-based; settings: 72 h
In short: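 Cells imaged at 0 and 72 h after compound treatment (10 points, ½ log dilution, 20 μM top), with fluorescent nuclei counted. Fold change in count was normalized to DMSO wells and fitted to dose-response curves to give GI50.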

SMILES | IC50 [1] [µM] | IC50 [2] [µM]
COC[C@H]1CCCN(C(=O)[C@@H](NC(=O)[C@@H]2CN(C(=O)c3cncs3)CC23CN(C(=O)[C@H]2CC2(C)C)C3)[C@@H](C)OCc2ccc(C(F)(F)F)cc2)C1 [I-319] | ≤ 0.5 | 0.5 to 5
COC[C@H]1CCCN(C(=O)[C@@H](NC(=O)[C@@H]2CN(C(=O)c3cncs3)CC23CN(C(=O)[C@H]2CC2(C)C)C3)[C@@H](C)OCc2ccccc2F)C1 [I-321] | 0.5 to 5 | 0.5 to 5
COC[C@H]1CCCN(C(=O)[C@@H](NC(=O)[C@@H]2CN(C(=O)c3cncs3)CC23CN(C(=O)[C@H]2CC2(C)C)C3)[C@@H](C)OCc2cccc(F)c2)C1 [I-322] | 0.5 to 5 | 0.5 to 5
COC[C@H]1CCCN(C(=O)CNC(=O)[C@@H]2CN(C(=O)c3cncs3)CC23CN(C(=O)[C@H]2CC2(C)C)C3)C1 [I-323] | > 10 | > 20
COC[C@H]1CCCN(C(=O)[C@@H](C)NC(=O)[C@@H]2CN(C(=O)c3cncs3)CC23CN(C(=O)[C@H]2CC2(C)C)C3)C1 [I-324] | > 10 | > 20
COC[C@H]1CCCN(C(=O)[C@H](C)NC(=O)[C@@H]2CN(C(=O)c3cncs3)CC23CN(C(=O)[C@H]2CC2(C)C)C3)C1 [I-325] | > 10 | > 20
C[C@@H](OCC1CCC(F)(F)CC1)[C@H](NC(=O)[C@@H]1CN(C(=O)c2cncs2)CC12CN(C(=O)[C@H]1CC1(C)C)C2)C(=O)N1CCC[C@H](COC(F)(F)F)C1 [I-326] | ≤ 0.5 | ≤ 0.5
C[C@@H](OCC1CCCCC1)[C@H](NC(=O)[C@@H]1CN(C(=O)c2cncs2)CC12CN(C(=O)[C@H]1CC1(C)C)C2)C(=O)N1CCNCC1 [I-328] | 0.5 to 5 | 0.5 to 5
C[C@@H](OCC12CCC(CC1)OC2)[C@H](NC(=O)[C@@H]1CN(C(=O)c2cncs2)CC12CN(C(=O)[C@H]1CC1(C)C)C2)C(=O)N1CCC2(CC1)COC2 [I-336] | > 10 | 5 to 20
C[C@@H](OCC1CCOCC1)[C@H](NC(=O)[C@@H]1CN(C(=O)c2cncs2)CC12CN(C(=O)C(C)(C)C1CC1)C2)C(C)(C)O [I-341] | > 10 | > 20
CNC(=O)[C@@H](NC(=O)[C@@H]1CN(C(=O)c2cncs2)CC12CN(C(=O)[C@H]1CC1(C)C)C2)[C@@H](C)OCC12CCC(CC1)OC2 [I-342] | 0.5 to 5 | 0.5 to 5
CNC(=O)[C@@H](NC(=O)[C@@H]1CN(C(=O)c2cncs2)CC12CN(CC1CCCC1)C2)[C@@H](C)OCC12CCC(CC1)OC2 [I-344, (S)—N-((2S,3R)-3-(2-oxabicyclo[2.2.2]octan-4-ylmethoxy)-1-(methylamino)-1-oxobutan-2-yl)-2-(cyclopentylmethyl)-6-(thiazole-5-carbonyl)-2,6-diazaspiro[3.4]octane-8-carboxamide] | > 10 | > 20
CNC(=O)[C@@H](NC(=O)[C@@H]1CN(C(=O)c2cncs2)CC12CN(CC1CCOC1)C2)[C@@H](C)OCC12CCC(CC1)OC2 (stereo partly drawn) [I-345] | > 10 | > 20
CNC(=O)[C@@H](NC(=O)[C@@H]1CN(C(=O)c2cncs2)CC12CN(C(=O)[C@H]1CC1(C)C)C2)[C@@H](C)OC[C@H]1CC[C@@H](C)CC1 [I-354] | 0.5 to 5 | ≤ 0.5
CNC(=O)[C@@H](NC(=O)[C@@H]1CN(C(=O)c2cncs2)CC12CN(C(=O)[C@H]1CC1(C)C)C2)[C@@H](C)OCC1CCC2(CC1)CC2 [I-355] | 0.5 to 5 | ≤ 0.5
CNC(=O)C(NC(=O)[C@@H]1CN(C(=O)c2cncs2)CC12CN(C(=O)[C@H]1CC1(C)C)C2)C(O)Cc1ccccc1 (stereo partly drawn) [I-356] | > 10 | > 20
C[C@@H](OC1(C2CCCCC2)CC1)[C@H](NC(=O)[C@@H]1CN(C(=O)c2cncs2)CC12CN(C(=O)[C@H]1CC1(C)C)C2)C(=O)N1CCCCC1 [I-357] | 5 to 10 | 5 to 20
CNC(=O)[C@@H](NC(=O)[C@@H]1CN(C(=O)Cc2cn[nH]c2)CC12CN(C(=O)[C@H]1CC1(C)C)C2)[C@@H](C)OCc1ccccc1 [I-358] | > 10 | > 20

Reference: patent publication US12065445B2, “CDK2 inhibitors and methods of using the same” (Cedilla Therapeutics, Inc., priority 2021, dated 2024)
